Results: patent US8822482B2, “Icotinib hydrochloride, synthesis, crystalline forms, pharmaceutical compositions, and uses thereof” (Beta Pharma, Inc., priority 2008, dated 2014)
Where a name gives a salt, the structure may show the parent alone.

Legend:
[1] = tested on: human A431 (human epidermoid carcinoma cell line) xenograft tumor; assay: Tumor inhibition on human A431 xenograft in nude mice; format: in vivo, BALB/C nude mice
Text: This was a preliminary study to compare Icotinib hydrochloride Crystalline Form I with erlotinib hydrochloride on inhibition of human A431 (human epidermoid carcinoma cell line) xenograft tumor.
Methods: The high EGFR-expressing human A431 (human epidermoid carcinoma cell line) cell line was selected for the xenograft study.
Tumor transplantation method: A431 human epidermoid cancer cells were inoculated subcutaneously in the right armpit of BALB/C nude mice to generate tumor nodules. These nodules were harvested, cut into 6 mm^3 blocks for routine inoculation and implanted into each mouse for the study. When tumors reached approximately 20 mm^3 in size (6-7 days), the animals were randomly divided into 4 groups of 6-9 animals/each group and body weights were recorded. The groups consisted of a control group (no drug treatment), an erlotinib hydrochloride treatment group (200 mg/kg) and high and low dose Icotinib hydrochloride Crystalline Form I treatment groups (200 and 50 mg/kg). Drugs were administered by oral gavage once daily; dosing frequency depended on the individual case for tumor growth. Tumor volume [tumor volume (V)=tumor size (L)×short diameter of tumor (S)^2/2] was measured using calipers once every 3 days. The animals were sacrificed 24-hour after the last drug administration and weighed. The tumor was removed and weighed to accurately calculate the tumor size. All group data was analyzed using the t test. If the p value was <0.05, it was considered to be statistically significant. Efficacy determination: tumor inhibition rate=[1−treatment group mean tumor weight (T)/control group mean tumor weight (C)]×100%

[2] = Pharmacokinetic study of the different crystalline forms and the free base in rats; format: in vivo, Wistar rats; details: fasted Wistar rats, oral suspension, dose equivalent to 35 mg/kg Icotinib hydrochloride, plasma
Procedure: Drugs and reagents: Icotinib (free base) and Icotinib hydrochloride crystalline forms I, II, III, and IV were ground to fine particles. The material content (purity) was not less than 99.0%. Sodium carboxymethyl cellulose was medical supply graded. Experimental animals: Wistar rats, male and female, 150-220 g each. Pharmaceutical preparation: Weigh the appropriate amount of each substance and add sodium carboxymethyl cellulose to 0.5%. Prepare a suspension at a final concentration of 3.5 mg/mL in water. Administration and sample collection: Each suspension was administered orally to fasted Wistar rats at a dose equivalent to 35 mg/kg Icotinib hydrochloride in a dose volume of 10 ml/kg. […] After purification, samples were analyzed by high performance liquid chromatography. The chromatographic conditions utilized C18-silane bonded silica as stationary phase, 0.02 mol/L of sodium dihydrogen phosphate in acetonitrile (40:60, using sodium hydroxide solution to adjust pH to 5.0) as the mobile phase and a detection wavelength of 334 nm.

SMILES | body weight and appearance at experiment termination ([1]; A431 xenograft nude mice) | tumor inhibition rate ([1]; A431 xenograft, 200 mg/kg oral gavage once daily (later reduced to 100 mg/kg)) [%] | animals died ([1]; after 5 days at 200 mg/kg) | The area under the concentration-time curve (0-infinity) [2] | The area under the concentration-time curve (0-t) [2]
C#Cc1cccc(Nc2ncnc3cc(OCCOC)c(OCCOC)cc23)c1 [erlotinib, Erlotinib Hydrochloride, reference compound] | lost weight and appeared sluggish | 77.6 | 3 of 8 | – | –
C#Cc1cccc(Nc2ncnc3cc4c(cc23)OCCOCCOCCO4)c1 [Free base, 4-[(3-ethynyl-phenyl)amino]-6,7-benzo-12-crown-quinazoline, reference compound] | – | – | – | 29.36 | 28.83
